Measurements published in ChEMBL document CHEMBL1132908, “Synthesis and activity studies of conformationally restricted alpha-ketoamide factor Xa inhibitors” (Bioorg Med Chem Lett, 2000).

Experiments:
Prothrombin = Prothrombin (Homo sapiens, UniProt P00734); experiment: Binding affinity for human thrombin
Coagulation factor X = Coagulation factor X (Homo sapiens, UniProt P00742); experiment: Inhibition of Coagulation factor X
Sequence of Coagulation factor X (P00742 41-179 limits assumed): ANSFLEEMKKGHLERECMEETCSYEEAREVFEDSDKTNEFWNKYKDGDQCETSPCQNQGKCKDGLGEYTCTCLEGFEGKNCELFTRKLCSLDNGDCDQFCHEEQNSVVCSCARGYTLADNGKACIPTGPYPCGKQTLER
Sequence of Coagulation factor X (P00742 235-488 limits assumed): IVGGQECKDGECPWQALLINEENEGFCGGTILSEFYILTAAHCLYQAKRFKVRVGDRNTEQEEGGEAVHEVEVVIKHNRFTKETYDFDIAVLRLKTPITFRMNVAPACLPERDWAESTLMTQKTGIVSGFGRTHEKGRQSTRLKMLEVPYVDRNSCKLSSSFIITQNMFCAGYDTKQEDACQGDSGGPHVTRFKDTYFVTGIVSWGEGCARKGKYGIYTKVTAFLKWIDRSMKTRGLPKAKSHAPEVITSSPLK

Row | SMILES | Ki (Prothrombin) [nM] | Ki (Coagulation factor X) [nM]
1 | CN(CC(=O)N[C@@H](CCCCN)B(O)O)C(=O)c1ccccc1S(=O)(=O)c1ccccc1 | 97 | 5800
2 | CN(CC(=O)N[C@@H](CCCCN)C(=O)C(=O)Nc1ccc(Oc2cccnc2)cc1)C(=O)c1ccccc1Sc1ccccc1C#N | 50 | 60
3 | CN(CC(=O)N[C@@H](CCCCN)C(=O)C(=O)Nc1ccccc1)C(=O)c1ccccc1Sc1ccccc1C#N | 60 | 54
4 | CN(CC(=O)N[C@@H](CCCCN)B(O)O)C(=O)c1ccccc1Sc1ccccc1 | 1.6 | 17
5 | CN(CC(=O)N[C@@H](CCCCN)C(=O)C(=O)NCc1ccccn1)C(=O)c1ccccc1Sc1ccccc1C#N | 7400 | 360
6 | CN(CC(=O)N[C@@H](CCCCN)B(O)O)C(=O)c1ccccc1Cc1ccccc1 | 4.9 | 100
7 | CN(CC(=O)N[C@@H](CCCCN)C(=O)C(=O)Nc1ccc(Oc2ccc(N)cc2)cc1)C(=O)c1ccccc1Sc1ccccc1C#N | 68 | 120
8 | CN(CC(=O)N[C@@H](CCCCN)C(=O)C(=O)NCCN1CCOCC1)C(=O)c1ccccc1Sc1ccccc1C#N | 8700 | 200
9 | CN(CC(=O)N[C@@H](CCCCN)C(=O)C(=O)Nc1ccc(Oc2cccc(N)c2)cc1)C(=O)c1ccccc1Sc1ccccc1C#N | 59 | 120
10 | CN(CC(=O)N[C@@H](CCCCN)B(O)O)C(=O)c1ccccc1Sc1ccccc1C#N | 8.8 | 1.1
11 | CN(CC(=O)N[C@@H](CCCCN)C(=O)C(=O)Nc1cccc(N)c1)C(=O)c1ccccc1Sc1ccccc1C#N | 120 | 120
12 | CNC(=O)C(=O)[C@H](CCCCN)NC(=O)CN(C)C(=O)c1ccccc1Sc1ccccc1C#N | 570 | 110
